“And” between values parts separate entries of the source, which are not always exact repeats. Equal entries are not always repeated. Strand notation (5' to 3'): a small letter for the sugar, then the base; units joined by * are phosphorothioate-linked, units joined directly phosphodiester-linked; [ ] holds rarer units or linkages, { } end groups; capitals alone tell only the bases. k = constrained ethyl (cEt); [5mC] = 5-methylcytosine; d = 2'-deoxy (DNA) Where only a bound is given, the exact number is not on record here.

This note sets out measurements from patent US11214803B2, “Modulators of YAP1 expression” (Ionis Pharmaceuticals, Inc., priority 2019, dated 2022).

Data set [1] is described as follows: Tolerability in CD-1 mice, body and organ weights (Example 16). Conditions: male CD-1 mice, 50 mg/kg s.c. twice a week for four weeks (8 treatments), end of study (day 27). Format: in vivo. As to the method:
(§1) Groups of four male CD-1 mice at 4-5 weeks of age (obtained from Charles River) were injected subcutaneously twice a week for four weeks (for a total of 8 treatments) with 50 mg/kg of modified oligonucleotides. One group of male CD-1 mice was injected with PBS. Mice were euthanized on day 27 post start of treatment (24 hrs following the final administration).
(§2) Body weights of CD-1 mice were measured at the end of the study, and the average body weight for each group is presented in the table below. Modified oligonucleotides that caused any changes in organ weights outside the expected range for modified oligonucleotides were excluded from further studies.

Data set [2] is described as follows: Tolerability in CD-1 mice, plasma chemistry markers (Example 16). Format: in vivo. Conditions: male CD-1 mice, 50 mg/kg s.c. twice a week for four weeks (8 treatments), day 27. How it is done: (§3) CD-1 mice were treated with modified oligonucleotides selected from studies described above and evaluated for changes in the levels of various plasma chemistry markers.
as §1

A short description of data set [3]: Tolerability in CD-1 mice, plasma chemistry markers (Example 17). Format: in vivo. The following applies: male CD-1 mice, 50 mg/kg s.c. twice a week for four weeks (8 treatments), day 27. How it is done: as §3, §1
Data set [4] can be described thus: Tolerability in CD-1 mice, body and organ weights (Example 17). Format: in vivo. Conditions: male CD-1 mice, 50 mg/kg s.c. twice a week for four weeks (8 treatments), end of study (day 27). As to the method: as §1, §2
Data set [5] concerns Yap1 mRNA. The data set can be described thus: Dose-dependent inhibition of human Yap1 in A-431 cells (Example 8, 10,000 cells per well, RTS4814). The following applies: free uptake, approximately 48 hours, RTS4814; for Yap1 mRNA, % UTC: A-431 cells, 10,000 cells per well. Type of data set: cell-based. A digest of the protocol:
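A-431 cells (10,000/well) dosed with modified oligonucleotides by free uptake; Yap1 mRNA measured ~48 h later with primer-probe set RTS4814, normalized to total RNA (RIBOGREEN). Values are % of untreated control; IC50 from linear regression on log/linear plot.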

Data set [6] can be described thus: Tolerability in Balb/c mice, plasma chemistry markers (Example 11). Type of data set: in vivo. Conditions: 50 mg/kg subcutaneously twice a week for four weeks. As to the method:
Balb/c mice were treated with modified oligonucleotides selected from studies described above and evaluated for changes in the levels of various plasma chemistry markers.
(§4) Groups of male Balb/c mice at 4-6 weeks of age (obtained from Taconic) were injected subcutaneously twice a week for four weeks (for a total of 8 treatments) with 50 mg/kg of modified oligonucleotides. One group of male Balb/c mice was injected with PBS. Mice were euthanized on day 26 post start of treatment (24 hours following the final administration).

The subject of data set [7] is Yap1 mRNA. The data set can be described thus: Dose-dependent inhibition of human Yap1 in A-431 cells (Example 7, 10,000 cells per well, RTS36584). Format: cell-based. Conditions: free uptake. A digest of the protocol:
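A-431 cells at 10,000 per well received modified oligonucleotides by free uptake at several doses. After about 48 hours, Yap1 mRNA was quantified with primer-probe set RTS36584, normalized to RIBOGREEN total RNA and expressed as % untreated control. IC50 came from linear regression on a log/linear plot.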

Data set [8] is described as follows: Tolerability in CD-1 mice, body and organ weights (Example 15). Type of data set: in vivo. The following applies: male CD-1 mice, 50 mg/kg s.c. twice a week for four weeks (8 treatments), end of study (day 26). As to the method: (§5) Groups of four male CD-1 mice at 4-5 weeks of age (obtained from Charles River) were injected subcutaneously twice a week for four weeks (for a total of 8 treatments) with 50 mg/kg of modified oligonucleotides. One group of male CD-1 mice was injected with PBS. Mice were euthanized on day 26 post start of treatment (24 hrs following the final administration).
as §2

Data set [9] is described as follows: Tolerability in Balb/c mice, body and organ weights (Example 11). Type of data set: in vivo. Conditions: 50 mg/kg subcutaneously twice a week for four weeks, end of study. How it is done:
as §4
Body weights of Balb/c mice were measured at the end of the study, and the average body weight for each group is presented in the table below. Modified oligonucleotides that caused any changes in organ weights outside the expected range for modified oligonucleotides were excluded from further studies.

Data set [10] can be described thus: Tolerability in CD-1 mice, plasma chemistry markers (Example 15). Format: in vivo. Conditions: male CD-1 mice, 50 mg/kg s.c. twice a week for four weeks (8 treatments), day 26. How it is done: as §3, §5
In data set [11] the test system is Yap1 mRNA. The data set is described as follows: Dose-dependent inhibition of human Yap1 in A-431 cells (Example 6, 5,000 cells per well, RTS4814). The following applies: Table 53, A-431 cells. Format: cell-based. A digest of the protocol: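 A-431 cells (5,000/well) took up oligonucleotides by free uptake at various doses for about 48 h. Yap1 mRNA was measured by RT-PCR (RTS4814), normalised to RIBOGREEN total RNA and expressed as % untreated control; IC50 by linear regression on a log/linear plot.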

In data set [1], “1076186 (kA*kT*kT*dT*dA*dG*dG*dA*dT*dG*d[5mC]*dA*dT*kG*kG*kT) [compound 1076186]” displayed a Kidney weight of 0.58 g, a Liver weight of 2.42 g, a Spleen weight of 0.16 g and a body weight of 37 g. In addition, in [2], the ALT is reported as 74 U/L, the AST stood at 97 U/L, the Albumin was found to be 2.5 g/dL and the BUN is listed as 23 mg/dL. Also, the TBIL in data set [2] is 0.16 mg/dL.

Consider “1097037 (kA*kG*kA*dT*dT*dT*dA*dG*dG*dA*dT*dG*d[5mC]*kA*kT*kG; antisense) [compound 1097037]”, for which, in data set [3], the ALT is 73 U/L, the AST is given as 97 U/L, the BUN is 23 mg/dL and the TBIL was 0.12 mg/dL. In data set [4], this substance registered a Kidney weight of 0.52 g, a Liver weight of 2.33 g, a Spleen weight of 0.21 g and a body weight of 33 g.

Turning to “1075395 (antisense kA*kT*kG*dA*dA*dT*dA*dA*dG*dT*dA*dT*dG*k[5mC]*k[5mC]*kA) [compound 1075395]”, the “Yap1 mRNA, % UTC” value in the data set on Yap1 mRNA [5] (31.3 nM) was determined as 60 % UTC. Besides, the “Yap1 mRNA, % UTC” value with Yap1 mRNA [5] (125.0 nM) is given as 18 % UTC. Moreover, the “Yap1 mRNA, % UTC” value in the data set with Yap1 mRNA [5] (500.0 nM) turned out to be 7 % UTC. The “Yap1 mRNA, % UTC” value in the data set with Yap1 mRNA [5] (2000.00 nM) was found to be 5 % UTC. The IC50 in the data set on Yap1 mRNA [5] (A-431 cells, linear regression on log/linear plot) is under 20 nM. In data set [3], this substance yielded an ALT of 38 U/L, an AST of 51 U/L, a BUN of 21 mg/dL and a TBIL of 0.18 mg/dL. In addition, in [4], the Kidney weight came out at 0.49 g, the Liver weight is listed as 2.30 g, the Spleen weight was found to be 0.20 g and the body weight was determined as 34 g.

In the case of “715483 (k[5mC]*kT*k[5mC]*dT*dT*dT*dG*dG*dA*dA*dA*d[5mC]*d[5mC]*kA*kT*kT) [compound 715483]”, the ALT turned out to be 62 U/L in [6] and 79 U/L in data set [10]. The AST in data set [6] amounted to 70 U/L; in data set [10], 125 U/L. The same substance returned a BUN in data set [6] of 16 mg/dL. For the same substance, the TBIL in data set [6] is 0.17 mg/dL. The “Yap1 mRNA, % UTC” value with Yap1 mRNA [7] (15.6 nM, A-431 cells, 10,000 cells per well, approximately 48 hours) was 88 % UTC and 87 % UTC and 77 % UTC; in the data set on Yap1 mRNA [7] (62.5 nM, A-431 cells, 10,000 cells per well, approximately 48 hours), 40 % UTC and 45 % UTC and 36 % UTC; with Yap1 mRNA [7] (4000.00 nM, A-431 cells, 10,000 cells per well, approximately 48 hours) it was 4 % UTC and 3 % UTC; in the data set on Yap1 mRNA [7] (Table 56, 15.6 nM, A-431 cells 10,000 cells per well, 48 hours), 78 % UTC; in the data set on Yap1 mRNA [7] (Table 56, 62.5 nM, A-431 cells 10,000 cells per well, 48 hours), 38 % UTC; in the data set on Yap1 mRNA [7] (Table 56, 4000.00 nM, A-431 cells 10,000 cells per well, 48 hours) it was 6 % UTC. In addition, the “Yap1 mRNA, % UTC” value in the data set with Yap1 mRNA [7] (Table 57, 15.6 nM, A-431 cells 10,000 cells per well, 48 hours) came to 79 % UTC; in the data set with Yap1 mRNA [7] (Table 57, 62.5 nM, A-431 cells 10,000 cells per well, 48 hours), 45 % UTC; in the data set with Yap1 mRNA [7] (Table 57, 4000.00 nM, A-431 cells 10,000 cells per well, 48 hours), 4 % UTC; with Yap1 mRNA [7] (Table 58, 15.6 nM, A-431 cells 10,000 cells per well, 48 hours) it was 84 % UTC; in the data set with Yap1 mRNA [7] (Table 58, 62.5 nM, A-431 cells 10,000 cells per well, 48 hours), 44 % UTC; with Yap1 mRNA [7] (Table 58, 4000.00 nM, A-431 cells 10,000 cells per well, 48 hours), 5 % UTC. Besides, the “Yap1 mRNA, % UTC” value in the data set on Yap1 mRNA [7] (Table 59, 15.6 nM, A-431 cells 10,000 cells per well, 48 hours) stood at 83 % UTC; in the data set with Yap1 mRNA [7] (Table 59, 62.5 nM, A-431 cells 10,000 cells per well, 48 hours), 44 % UTC; in the data set on Yap1 mRNA [7] (Table 59, 4000.00 nM, A-431 cells 10,000 cells per well, 48 hours), 4 % UTC; in the data set on Yap1 mRNA [7] (Table 60, 15.6 nM, A-431 cells 10,000 cells per well, 48 hours) it was 79 % UTC; with Yap1 mRNA [7] (Table 60, 62.5 nM, A-431 cells 10,000 cells per well, 48 hours), 40 % UTC; with Yap1 mRNA [7] (Table 60, 4000.00 nM, A-431 cells 10,000 cells per well, 48 hours) it was 3 % UTC. Besides, the “Yap1 mRNA, % UTC” value is given as 80 % UTC in the data set on Yap1 mRNA [7] (Table 61, 15.6 nM, A-431 cells 10,000 cells per well, 48 hours); 38 % UTC in the data set on Yap1 mRNA [7] (Table 61, 62.5 nM, A-431 cells 10,000 cells per well, 48 hours); 4 % UTC with Yap1 mRNA [7] (Table 61, 4000.00 nM, A-431 cells 10,000 cells per well, 48 hours). Moreover, the IC50 in the data set with Yap1 mRNA [7] (Table 56, A-431 cells 10,000 cells per well) was 50 nM; in the data set on Yap1 mRNA [7] (Table 57, A-431 cells 10,000 cells per well), 100 nM; in the data set with Yap1 mRNA [7] (Table 58, A-431 cells 10,000 cells per well), 100 nM; in the data set on Yap1 mRNA [7] (Table 59, A-431 cells 10,000 cells per well), 100 nM; in the data set on Yap1 mRNA [7] (Table 60, A-431 cells 10,000 cells per well) it was 100 nM; in the data set on Yap1 mRNA [7] (Table 61, A-431 cells 10,000 cells per well), 100 nM. Moreover, the IC50 with Yap1 mRNA [11] (Yap1 mRNA, linear regression on a log/linear plot) amounted to 1100 nM. In addition, the figures for the Kidney weight in [8] and in [9] were 0.64 g and 0.43 g, respectively. Besides, the values for the Liver weight in [8] and in data set [9] were 2.26 g and 1.56 g, respectively. The values for the Spleen weight in data set [8] and in data set [9] were 0.21 g and 0.12 g, respectively. Besides, the body weight in data set [8] stood at 40 g; in data set [9] it was 25 g. Further, the ALB in [10] turned out to be 2.2 g/dL. For the same substance, in the data set on Yap1 mRNA [11] (free uptake, 148 nM, approximately 48 hours, RTS4814), the “% UTC 148 nM” value came out at 82 % UTC. Also, in the data set with Yap1 mRNA [11] (free uptake, 444 nM, approximately 48 hours, RTS4814), the “% UTC 444 nM” value turned out to be 58 % UTC. Also, in the data set with Yap1 mRNA [11] (free uptake, 1333 nM, approximately 48 hours, RTS4814), the “% UTC 1333 nM” value stood at 43 % UTC. In addition, in the data set with Yap1 mRNA [11] (free uptake, 4000 nM, approximately 48 hours, RTS4814), the “% UTC 4000 nM” value worked out at 35 % UTC.

Usually IC50 stands for the concentration that gives 50% inhibition. High values mean lower potency, low ones higher potency.
